Assay results reported in PMC6508865, “Dynamics of thymol dietary supplementation in quail (Coturnix japonica): Linking bioavailability, effects on egg yolk total fatty acids and performance traits” (PLoS ONE, 2019).

Tested on: female Japanese quail (Coturnix japonica)
Assay: Total fatty acid analysis in egg yolks (GC/MS of FAME)
Assay type: in vivo
Conditions: for egg yolk SFA reduction disappeared after post-supplementation / persistence of reduced egg yolk 16:0 concentration after post-supplementation / persistence of reduced egg yolk 18:0 concentration after post-supplementation: 21 days of pS
Excerpt: All birds continued receiving a basal diet between 85 and 100 days of age and all variables (see below for details) were registered along this period (Pre-supplementation period, Fig 1). […] Once finished the S period, half of the quail were slaughtered for histological analysis (n = 25; Slaughter 1, Fig 1) and the other half were subjected to a pS period of 21 days, during which all females received the BASAL diet (pS, Fig 1). After this period, the remaining 25 animals were also slaughtered for histological analysis (Slaughter 2, Fig 1). In this way, we assessed whether THY induced changes in variables indicative of tissue damage and if so, whether the potential damages could reverse after 3 weeks of supplement withdrawal.
To assess changes in egg yolk total FA composition, egg physical characteristics, laying rate, body weight, feed intake and general welfare, during the S and pS periods, five sampling points were defined (Sample points, Fig 1): one initial sample point (at 0 days of S); three sample points during the S period (at 7, 14 and 28 days of S); and one sample point at the end of the pS period (21 days of pS). It should be noted that for determinations of THY concentration, eggs and quail droppings were collected offset from the other variables measured by 2 days, thus were collected on days 2, 9, 16, and 26 days of S, and 17 days of pS, respectively.
Eggs were obtained at each sample point (Sample points, Fig 1) and stored at -20°C until yolk total fatty acids analysis. Lipids were extracted from the yolk following homogenization in a suitable excess of chloroform/methanol (2:1 v/v). The solvents were removed under reduced pressure in a rotary evaporator. Lipids were subjected to alkaline saponification (1 mol/L potassium hydroxide in methanol), and the unsaponifiable matter was extracted with n-hexane. The fatty acid methyl esters (FAMEs) were prepared by transmethylation through treatment with 1 mol/L sulfuric acid in methanol and analyzed by gas chromatography/mass spectrometry (GC/MS). All chemicals used in this study were reagent-grade commercial products. FAMEs were analyzed by gas chromatography on a 60 m fused capillary column with an internal diameter of 0.25 mm (PerkinElmer Elite-WAX Polyethylene Glycol). The analysis was performed on a PerkinElmer Clarus® 600 GC/MS system equipped with a flame ionization detector (Waltham, MA, USA). […] The injection port temperature was 250°C and the detector temperature was 250°C. […] Peak identification was carried out by comparing the known retention times for the fatty acids reported with the temperature program and the chromatographic system used.

[1] = THY6, 6.25 g of thymol/kg of feed
[2] = all THY supplemented diets (2, 4, 6.25 g/kg of feed)

`Cc1ccc(C(C)C)c(O)c1` [THY, 2 isopropyl-5-methylphenol] was tested, and the “effect on egg yolk MUFA” value (2, 4, 6.25 g of thymol/kg of feed, diet, time of sampling or interaction) was “No differences”, the “supplementation time by which reduced egg yolk 16:0 (palmitic acid) concentration was achieved” value (THY2, 2 g of thymol/kg of feed) was 28 days of S and the “supplementation time by which reduced egg yolk 18:0 (stearic acid) concentration was achieved” value (THY2, 2 g of thymol/kg of feed) was 28 days of S. The “supplementation time required for increasing egg yolk 22:5 (docosapentaenoic acid)” value (THY2, 2 g of thymol/kg of feed) was 14 days of S, the “supplementation time required to reduce egg yolk SFA concentration” value (THY2, 2 g of thymol/kg of feed) was 28 days of S and the “egg yolk SFA reduction disappeared after post-supplementation” value (shortened to “egg yolk SFA reduction disappeared”) (THY2, 2 g of thymol/kg of feed) was “disappeared”. The “persistence of reduced egg yolk 16:0 concentration after post-supplementation” value (THY2, 2 g of thymol/kg of feed) was “returned to initial levels”, the “persistence of reduced egg yolk 18:0 concentration after post-supplementation” value (THY2, 2 g of thymol/kg of feed) was “continued” and the “effect on egg yolk PUFA concentration” value (THY2, 2 g of thymol/kg of feed, S period) was “failed to increase PUFA”. For the same compound, the “effect on egg yolk 16:1 (palmitoleic acid)” value (from here on “effect … (palmitoleic acid)”) (THY2, 2 g of thymol/kg of feed, by 7 and 14 days of S) was “transient decrease”, the “day of supplementation by which egg yolk polyunsaturated fatty acids increased” value (THY4, 4 g of thymol/kg of feed) was 14 day of supplementation and the “supplementation time by which reduced egg yolk 16:0 (palmitic acid) concentration was achieved” value (THY4, 4 g of thymol/kg of feed) was 14 days of S. The “supplementation time by which reduced egg yolk 18:0 (stearic acid) concentration was achieved” value (THY4, 4 g of thymol/kg of feed) was 14 days of S, the “supplementation time from which egg yolk 18:3 (linolenic acid) concentration was higher” value (THY4, 4 g of thymol/kg of feed) was 14 days of S and the “supplementation time from which egg yolk 20:4 (arachidonic acid) concentration was higher” value (THY4, 4 g of thymol/kg of feed) was 14 days of S. The “supplementation time required for increasing egg yolk 22:5 (docosapentaenoic acid)” value (THY4, 4 g of thymol/kg of feed) was 14 days of S, the “supplementation time required to reduce egg yolk SFA concentration” value (THY4, 4 g of thymol/kg of feed) was 14 days of S and the “egg yolk SFA reduction disappeared” value (THY4, 4 g of thymol/kg of feed) was “not”. For the same compound, the “persistence of reduced egg yolk 16:0 concentration after post-supplementation” value (THY4, 4 g of thymol/kg of feed) was “continued”, the “persistence of reduced egg yolk 18:0 concentration after post-supplementation” value (THY4, 4 g of thymol/kg of feed) was “continued” and the “effect on egg yolk PUFA concentration” value (THY4, 4 g of thymol/kg of feed, S period and 21 days of pS) was “induced PUFA increments that remained enhanced even at 21 days of pS”. The “effect … (palmitoleic acid)” value (THY4, 4 g of thymol/kg of feed, at 21 days of pS) was “transient decrease”, the “day of supplementation by which egg yolk polyunsaturated fatty acids increased” value [1] was 14 day of supplementation and the “supplementation time by which reduced egg yolk 16:0 (palmitic acid) concentration was achieved” value [1] was 14 days of S. The “supplementation time by which reduced egg yolk 18:0 (stearic acid) concentration was achieved” value [1] was 14 days of S, the “supplementation time from which egg yolk 18:3 (linolenic acid) concentration was higher” value [1] was 14 days of S and the “supplementation time from which egg yolk 20:4 (arachidonic acid) concentration was higher” value [1] was 14 days of S. The “supplementation time required for increasing egg yolk 22:5 (docosapentaenoic acid)” value [1] was 7 days of S, the “egg yolk SFA reduction disappeared” value [1] was “not” and the “persistence of reduced egg yolk 16:0 concentration after post-supplementation” value [1] was “continued”. For the same compound, the “persistence of reduced egg yolk 18:0 concentration after post-supplementation” value [1] was “returned to initial levels”, the “effect on egg yolk PUFA concentration” value (THY6, 6.25 g of thymol/kg of feed, S period and 21 days of pS) was “induced PUFA increments that remained enhanced even at 21 days of pS” and the “effect … (palmitoleic acid)” value (THY6, 6.25 g of thymol/kg of feed, at 21 days of pS) was “transient decrease”. The “supplementation time required to reduce egg yolk SFA concentration” value (THY6, 6.25 g of thymol/kg of feed, reduction of even greater magnitude) was 14 days of S, the “supplementation time from which egg yolk 20:5 (eicosapentaenoic acid) was increased” value [2] was 7 days of S and the “supplementation time from which egg yolk 22:6 (docosahexaenoic acid) was increased” value [2] was 7 days of S.
